The numbers were not newly measured in article PMC7250496 (Journal of medicinal chemistry, 2020), which cites them from elsewhere.

For data set [1], the target named is mMC3R (Mus musculus, UniProt P33033). The conditions noted are these: previously reported ref 80.
Data set [2] has as its target mMC5R (Mus musculus, UniProt P41149). The conditions noted are these: previously reported ref 80.

Molecules are shown by their SMILES.

Sequence of mMC3R (P33033 whole entry): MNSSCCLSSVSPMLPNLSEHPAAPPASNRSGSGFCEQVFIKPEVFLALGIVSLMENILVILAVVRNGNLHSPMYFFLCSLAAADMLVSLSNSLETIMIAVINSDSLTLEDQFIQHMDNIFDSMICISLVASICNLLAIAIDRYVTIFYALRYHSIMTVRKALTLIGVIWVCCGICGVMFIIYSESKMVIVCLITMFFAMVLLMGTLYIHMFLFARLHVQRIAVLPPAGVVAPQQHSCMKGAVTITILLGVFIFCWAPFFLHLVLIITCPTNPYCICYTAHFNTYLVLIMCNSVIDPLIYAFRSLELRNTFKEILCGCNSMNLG
Sequence of mMC5R (P41149 whole entry): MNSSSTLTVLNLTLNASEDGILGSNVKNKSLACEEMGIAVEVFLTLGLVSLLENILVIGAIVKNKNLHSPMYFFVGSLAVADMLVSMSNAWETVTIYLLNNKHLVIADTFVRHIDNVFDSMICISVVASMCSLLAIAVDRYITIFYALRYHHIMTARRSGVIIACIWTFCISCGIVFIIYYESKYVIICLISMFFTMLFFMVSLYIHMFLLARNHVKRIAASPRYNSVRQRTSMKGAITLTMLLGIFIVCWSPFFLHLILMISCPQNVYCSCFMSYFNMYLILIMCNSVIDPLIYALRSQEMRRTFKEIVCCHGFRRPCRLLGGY

Turning to `C[C@@H]1NC(=O)[C@H](CN)NC(=O)[C@H](Cc2ccccc2)NC(=O)[C@H](Cc2ccccc2)NC(=O)[C@H](CCCNC(=N)N)NC(=O)[C@@H]2CCCN2C(=O)[C@H]2CCCN2C(=O)[C@H](Cc2ccccc2)NC1=O` [Compound 2, c[Pro-Arg-Phe-Phe-Dap-Ala-Phe-DPro]], the “mMC3R pA2” value in data set [1] (antagonist, Schild analysis, agonist NDP-MSH) is reported as 6.5 ± 0.09. For the same compound, the EC50 (in general, the concentration needed to bring the measured effect to its halfway point) in data set [1] (read-out: mMC3R EC50, agonist) was above 100 µM. For the same compound, the “mMC5R Inverse Agonist, percent decrease from basal” value in data set [2] is “Inverse Agonist −15%”.
